The values below come from patent US20070037783A1, “Migrastatin analogs and uses thereof” (priority 2003, published 2007).

Structures are written as SMILES.

The subject of series [1] is HUVECs (human umbilical vein endothelial cells). As to the kind of experiment: Boyden chamber cell migration assay with HUVECs. It counts as cell-based. The conditions noted are these: chamber cell migration; average of three experiments; read-out: IC50 (HUVEC). How it is done:
(§1) Chamber Cell Migration Assay (Tables 4 and 6): Cell migrations were assayed with Boyden chambers [8.0 μm pore size, polyethylene terephthalate membrane, FALCON cell culture insert (Becton-Dickinson)]. 4T1 mouse breast tumor cells or HUVECs were trypsinized and counted. 300 μl of 5-10×10^4 cells in serum-free medium was added to the upper chamber and 500 μl of medium with 10% fetal bovine serum (FBS) was added to the lower chamber. The transwells were incubated for 6-8 h at 37° C. with different concentrations of chemical compound in both upper and lower chamber. Cells on the inside of the transwell inserts were removed with a cotton swab, and cells on the underside of the insert were fixed and stained. Photographs of three random regions were taken and the number of cells was counted to calculate the average number of cells that have transmigrated.

The test system of series [2] is 4T1 tumors. As to the kind of experiment: Effect on 4T1 primary tumor growth in mice. The conditions noted are these: 10 mg/kg i.p. daily Day 7-25; tumors measured Day 28. It counts as in vivo, BALB/c mice. How it is done:
Female BALB/c mice (6-8 week old) were purchased from the Jackson Laboratory (Bar Harbor, Me.). All mice were housed at the Weill Medical College of Cornell University Animal Facilities in accordance with the Principles of Animal Care (NIH publication no. 85-23, revised 1985). 4T1 tumor cells (1×10^5) were injected subcutaneously into the abdominal mammary gland area of mice in 0.1 ml of a single-cell suspension in phosphate buffered saline (PBS) on Day 0. The dosage of tumor implantation was empirically determined to give rise to tumor of ˜10 mm in diameter in untreated wild type mice in 21-23 days. On Day 7, when the tumors averaged in size ˜4-5 mm in diameter, migrastatin analogs or control PBS saline were given every day by intraperitoneal injection at 10 mg/kg or 20 mg/kg per mouse until Day 25. On Day 28, the mice were sacrificed. […] Primary tumors were measured using electronic calipers on the day when the mice were sacrificed. […] Numbers of metastatic 4T1 cells in lung were determined by the clonogenic assay.^63 In brief, lungs were removed from each mouse on Day 28, finely minced and digested in 5 ml of enzyme cocktail containing 1× PBS and 1 mg/ml collagenase type IV for 2 hours at 37° C. on a platform rocker. […]
Effect of migrastatin analogs on 4T1 tumor cell growth (See, FIG. 5). […] On Day 28, primary tumors were measured using electronic calipers. […]

Series [3] deals with 4T1 tumor lung metastasis. As to the kind of experiment: 4T1 tumor lung metastasis in syngeneic mice (6-thioguanine clonogenic assay). Type of series: in vivo, BALB/c mice. The following applies: for lung metastasis colonies: lungs Day 28, mean and standard deviation. The source says:
Inhibition of metastasis of mouse breast tumors by migrastatin alogs in mice. 4T1 mouse breast tumor cell line was isolated from a single spontaneously arising mammary tumor from a BALB/BfC3H mouse (MMTV+).^62 The 4T1 tumor closely mimics human breast cancer in its anatomical site, immunogenecity, growth characteristics, and metastatic properties.^63 From the mammary gland, 4T1 tumor spontaneously metastasizes to a variety of target organs including the lung, bone, brain, and liver through primarily a hematogenous rout.^64
To assess the efficacy of therapeutic application of migrastatin analogs in the 4T1 murine mammary carcinoma models, we administered migrastatin analogs (macroketone and macrolactam) to BALB/c mice carrying the 4T1 tumors.
Female BALB/c mice (6-8 week old) were purchased from the Jackson Laboratory (Bar Harbor, Me.). All mice were housed at the Weill Medical College of Cornell University Animal Facilities in accordance with the Principles of Animal Care (NIH publication no. 85-23, revised 1985). 4T1 tumor cells (1×10^5) were injected subcutaneously into the abdominal mammary gland area of mice in 0.1 ml of a single-cell suspension in phosphate buffered saline (PBS) on Day 0. The dosage of tumor implantation was empirically determined to give rise to tumor of ˜10 mm in diameter in untreated wild type mice in 21-23 days. On Day 7, when the tumors averaged in size ˜4-5 mm in diameter, migrastatin analogs or control PBS saline were given every day by intraperitoneal injection at 10 mg/kg or 20 mg/kg per mouse until Day 25. On Day 28, the mice were sacrificed. This regiment of migrastatin analogs was well tolerated with no signs of overt toxicity. Every group included five mice. Primary tumors were measured using electronic calipers on the day when the mice were sacrificed. Tumor size was the square root of the product of two perpendicular diameters. Numbers of metastatic 4T1 cells in lung were determined by the clonogenic assay.^63 In brief, lungs were removed from each mouse on Day 28, finely minced and digested in 5 ml of enzyme cocktail containing 1× PBS and 1 mg/ml collagenase type IV for 2 hours at 37° C. on a platform rocker. After incubation, samples were filtered through 70 uM nylon cell strainers and washed twice with PBS. Resulting cells were suspended and plated serially diluted in 10 cm tissue culture dishes in medium RPMI1640 containing 60 uM thioguanine for clonogenic growth. 6-Thioguanine-resistant tumor cells formed foci after 14 days, at which time they were fixed with methanol and stained with 0.03% methylene blue for counting.
Treatment 4T1 tumor lung metaotmis in smgencie mice with Kigrastatin analogs (See, FIG. 4). 4T1 tumor cells (10^5) were injected s.c. in the abdominal mammary gland with 0.1 ml of a single-cell suspension. Macroketone or macrolactam at 10 mg/kg or 20 mg/kg was given i.p. on Day 7 when the tumor size was about 5 mm in diameter, and everyday until Day 25. On Day 28, the mice were sacrificed. Each group comprised five mice. Lung metastasis was measured by the 6-thiogunine clonogenic assay. The mean and standard deviation are presented. In the control group (daily PBS injection), there were 61300±18900 colonies.

Series [4] has as its system 4T1 mouse breast tumor cells. As to the kind of experiment: Boyden chamber cell migration assay with 4T1 tumor cells. It counts as cell-based. The conditions noted are these: chamber cell migration, 6-8 h; average of three experiments; read-out: IC50 (4T1 tumor cells). How it is done:
The biological evaluation of the compounds (in terms of their ability to inhibit cell migration) was accomplished in a Boyden chamber cell migration assay. In this assay, mouse breast tumor cells (4T1 cells) or endothelial cells (HUVECs) are seeded on the upper chamber of a transwell insert. Growth factor-containing serum is added to the lower chamber.
as §1, with “The transwells were incubated for 6-8 h at 37° C. with different concentrations of chemical compound in both upper and lower chamber.” left out

Series [5] relates to 4T1 mouse breast tumor cells. As to the kind of experiment: Wound-healing assay with 4T1 cells (FIG. 6). Type of series: cell-based. The following applies: with serum; 200 μM; overnight. The source says:
In the wound healing assay, standard scratches (i.e., wounds) were made through a confluent 4T1 cell layer. In the absence of serum, cells would not migrate across the empty space created by application of the scratch. Upon addition of serum containing migration-enabling factors, migration of 4T1 cells across the scratch was induced. Exposure to these cells to inventive compounds allowed the evaluation of the cell migration inhibitory activity of these compounds.
Wound-Healing Assay (See FIG. 6). 4T1 mouse breast tumor cells in RPMI-1640 medium containing 10% fetal bovine serum (FBS) were seeded into wells of 24-multiwell plates (Becton-Dickinson). After cells grew to confluence, wounds were made with sterile pipette tips. Cells were washed with Phosphate Buffered Saline (PBS) and refreshed with growth medium containing different concentrations of chemical compounds. After overnight incubation at 37° C., cells were fixed and photographed.

Series [6] in a line: Mouse plasma stability study (HPLC). Type of series: in vitro ADME. As to the method:
Mouse Plasma Stability Studies (Table 5): HPLC conditions: The sample is injected and separated using an Inertsil ODS3 6u 3×150 mm column with a mobile phase of MeCN and water (50% for migrastatin) at a flow of 0.4 mL/min, monitored at 220 nm at 0.02 AUFS (the retention time for migrastatin is ca. 4 min, the identity of this peak was confirmed by mass spectral analysis). Incubation and sample preparation conditions: A solution (ca. 30 mM) of chemical compound (Table 5) in DMSO is prepared. 2 μL of the solution is added to a mixture containing 200 μL of mouse plasma and 800 μL of PBS. The resulting solution is put into a water bath at 37° C., and 100 μL of sample is withdrawn at 10, 20, 30, 45, and 60 min. The precipitate is removed by centrifugation and 20 μL of the supernatant is injected onto the HPLC.

Series [7] has as its system 4T1 tumor cells. As to the kind of experiment: Cell proliferation assay (MTT). The conditions noted are these: MTT, 48 h; up to 20 μM.
Description: Cell Proliferation Assay: 4×10^4 of 4T1 tumor cells in RPMI-1640 medium containing 10% FBS were seeded into wells of 96-multiwell plates (Becton-Dickinson) in the presence or absence of chemical compounds and then incubated at 37° C. for 48 h. An MTT kit (Cell Proliferation Kit I, Roche) (a colorimetric assay) was used to quantify cell proliferation and viability. The number of living cells, thus the total metabolic activity, directly correlates to the amount of purple formazan crystals formed (monitored by the absorbance).

As a reminder, the IC50 is the concentration that inhibits the measured activity by half. For the molecule `COC1C=CCCCCC(=O)CCC(C)=CC(C)C1O` (stereo not shown) [macroketone (60), Macroketone], the IC50 in series [1] came to 12000 nM; in series [4], 100 nM. The “effect on growth of 4T1 primary tumors, in words” value in series [2] is “minor effect on tumor growth”. For the same molecule, the “inhibition of lung metastasis” value is roughly 94% in series [3] (10 mg/kg i.p. daily Day 7-25) and roughly 99% in series [3] (20 mg/kg i.p. daily Day 7-25). In addition, the lung metastasis colonies worked out at 3875±2525 colonies in series [3] (10 mg/kg i.p. daily Day 7-25) and 650±575 colonies in series [3] (20 mg/kg i.p. daily Day 7-25).

For the molecule `COC1C=CCCCCC(=O)OCC(C)=CC(C)C1O` (stereo not shown) [macrolactone (48), Macrolactone], the concentration for half-maximal inhibition (IC50) in series [1] stood at 125 nM; in series [4], 24 nM. Also, in series [5], the “inhibition of 4T1 cell migration across the scratch, in words” value is recorded as “almost completely inhibited cell migration across the scratch”. Besides, the “stability (t1/2, mouse plasma)” value in series [6] (mouse plasma/PBS, 37° C., sampled up to 60 min) was less than 5 min. Moreover, in series [6] (stable = intensity of HPLC signal unchanged over 60 min of incubation), the “stability (mouse plasma), in words” value is recorded as “hydrolyzed rapidly”. Further, the “cytotoxic or anti-proliferative effects on 4T1 cells, in words” value in series [7] was “did not have any cytotoxic or anti-proliferative effects up to 20 μM”.
